Each structure is given as a SMILES string.

The subject of data set [1] is normal human lung fibroblast Wi-38 cell line. The data set can be described thus: MTT cytotoxicity on normal cells. The class given is cell-based. Conditions: Wi-38, 72 h, MTT, mean ± SEM; for EC50: Homo sapiens, 50% cell viability; for Wi-38 EC100: safe dose, 100% cell viability. The method, then: Cytotoxicity of the tested compounds was evaluated using normal human lung fibroblast Wi-38 cell line compared to currently used anticancer drug (doxorubicin) using MTT method was used for assaying cell viability[26] (Supplementary Page S55).
Cytotoxicity test is one of the biological evaluations and screening tests that use human normal and cancer cells in-vitro to observe the effect of the studied compounds on their growth using MTT-based cytotoxicity. Microculture MTT method[26] was used to determine cytotoxic activity of the newly synthesised compounds against normal human lung fibroblast (Wi-38) using doxorubicin (Dox) as standard anticancer drug. The highest IC50 and EC100 values illustrate that the compounds were safe on the proliferation of normal human cells. […]. page 47:
(§1) Cytotoxicity of the tested compounds was evaluated using normal human lung fibroblast Wi-38 cell line compared to currently used anticancer drug (doxorubicin).
Firstly, Wi-38 cell line was subcultured in DMEM medium-contained 10% fetal bovine serum (FBS), then, seeded as 5x10^3 cells per well in 96-well cell culture plate and incubated at 37 °C in 5% CO 2 incubator. Serial concentrations of these compounds and doxorubicin (Dox) were incubat ed with Wi-38 cells for 72 h after 24 h for cell attachment. MTT method was used for assaying cell viability 25. Twenty microliters of 5 mg/ml MTT (Sigma, USA) was added to each well and the plate was incubated at 37 °C for 3 h. Then MTT solution was removed, 100 µl DMSO was used and the absorbance of each well was measured with a microplate reader ( BMG LabTech, Germany) at 570 nm. The effective concentration (IC 50) and safe dose (EC100) values of the tested compounds that cause 50% and 100% cell viability were estimated by the Graphpad Instat software. […]

For data set [2], the system named is liver cancer cell line (HepG-2). The data set can be described thus: MTT anticancer activity, HepG-2. The data set is classed as cell-based, human. The note with it: Homo sapiens, HepG2; HepG-2, 72 h, MTT; mean ± SEM. As to the method: (§2) Anticancer effect of the above-mentioned compounds was evaluated using four human cancer cell lines. Colon cancer cells (Caco-2), myeloid leukaemia cell line (NFS-60), liver cancer cell line (HepG-2) and prostate cancer cell line (PC-3) using MTT method was used for assaying cell viability[26] (Supplementary Page S55).
(§3) All final compounds were evaluated against four human cancer cell lines namely; liver cancer (HepG2) (ATCC® HB-8065™), colon cancer (Caco-2) (ATCC® HTB-37™), leukaemia cancer (NFS-60) (ATCC® CRL-1838™), and prostate cancer (PC-3) (ATCC® CRL-1435™) using doxorubicin (Dox) as the reference drug being widely used in tumour management utilising microculture MTT assay, declared by Mosmann[26] (Table 1 in Supplementary Material, Figures 5–8). […]
(§4) MTT method was used for assaying cell viability 25. Twenty microliters of 5 mg/ml MTT (Sigma, USA) was added to each well and the plate was incubated at 37 °C for 3 h. Then MTT solution was removed, 100 µl DMSO was used and the absorbance of each well was measured with a microplate reader ( BMG LabTech, Germany) at 570 nm. The effective concentration (IC 50) and safe dose (EC100) values of the tested compounds that cause 50% and 100% cell viability were estimated by the Graphpad Instat software.
(§5) Determination of the anticancer activity
(§6) Anticancer effect of the above-mentioned compounds was evaluated using four human cancer cell lines. Colon cancer cells (Caco-2) were maintained in DMEM (Lonza, USA) containing 10% FBS while myeloid leukemia cell line (NFS-60), liver cancer cell line (HepG-2) and prostate cancer cell line (PC-3) were cultured in RPMI-1640 (Lonza, USA) supplemented with 10% FBS. All cancer cells (5x10^3 cells/well) were seeded in sterile 96-well plates. After 24h, serial concentrations of the tested compounds and Dox were incubated with four cancer cell lines for 72 h at 37 °C in 5% CO2 incubator. MTT method was done as described above. The Graphpad Instat software was used for calculating the half maximal inhibitory concentration (IC50) values. Furthermore, phase contrast inverted microscope with a digital camera (Olympus, Japan) was used for investigating […]
(§7) safest anticancer compounds. […]

In data set [3] the test system is Colon cancer cells (Caco-2). Kind of data set: MTT anticancer activity, Caco-2. The data set is classed as cell-based, human. The note with it: for IC50: Caco-2, 72 h, MTT, mean ± SEM; for Caco-2 SI: selectivity index, Wi-38 versus Caco-2. The method, then: as §2
All final compounds were evaluated against four human cancer cell lines namely; liver cancer (HepG2) (ATCC® HB-8065™), colon cancer (Caco-2) (ATCC® HTB-37™), leukaemia cancer (NFS-60) (ATCC® CRL-1838™), and prostate cancer (PC-3) (ATCC® CRL-1435™) using doxorubicin (Dox) as the reference drug being widely used in tumour management utilising microculture MTT assay, declared by Mosmann[26] (Table 1 in Supplementary Material, Figures 5–8).
as §1
Firstly, Wi-38 cell line was subcultured in DMEM medium-contained 10% fetal bovine serum (FBS), then, seeded as 5x10^3 cells per well in 96-well cell culture plate and incubated at 37 °C in 5% CO 2 incubator. Serial concentrations of these compounds and doxorubicin (Dox) were incubat ed with Wi-38 cells for 72 h after 24 h for cell attachment. MTT method was used for assaying cell viability 25. Twenty microliters of 5 mg/ml MTT (Sigma, USA) was added to each well and the plate was incubated at 37 °C for 3 h. Then MTT solution was removed, 100 µl DMSO was used and the absorbance of each well was measured with a microplate reader ( BMG LabTech, Germany) at 570 nm. The effective concentration (IC 50) and safe dose (EC100) values of the tested compounds that cause 50% and 100% cell viability were estimated by the Graphpad Instat software.
as §5, §6, §7

The subject of data set [4] is myeloid leukaemia cell line (NFS-60). Kind of data set: MTT anticancer activity, NFS-60. The class given is cell-based. The note with it: NFS-60, 72 h, MTT; mean ± SEM. The method, then:
as §2, §3, §4, §5, §6, §7

In data set [5] the test system is prostate cancer cell line (PC-3). Kind of data set: MTT anticancer activity, PC-3. The data set is classed as cell-based, human. The note with it: PC-3, 72 h, mean ± SEM. As to the method: as §2, §3, §4, §5, §6, §7

As to `N#Cc1c(-c2cc3ccccc3nc2N2CCOCC2)cc(-c2cccc(O)c2)[nH]c1=O` [5a, 6-(3-Hydroxyphenyl)-4-(morpholin-4-yl-quinolin-3-yl)-2-oxo-1,2-dihydropyridine-3-carbonitrile], the melting point was more than 300 °C. In data set [1], the EC50 was determined as 60.3 ± 40 nM and the “Wi-38 EC100” value came to 0.0192 ± 0.003 µM. Moreover, the 50% inhibitory concentration (IC50) in data set [2] was 34.4 ± 6 nM. Further, in data set [3] (Homo sapiens), the midpoint of inhibition, the IC50, lay at 38.8 ± 8 nM. Besides, the “Caco-2 SI” value in data set [3] came out at 1.554. Also, half-maximal inhibition in data set [4] (IC50) required 31.62 ± 0.1 nM.

In turn, `N#Cc1c(-c2cc3ccccc3nc2N2CCCCC2)cc(-c2cccc(O)c2)[nH]c1=O` [5d, 6-(3-Hydroxyphenyl)-2-oxo-4-(2-(piperidin-1-yl)quinoline-3-yl)-1,2-dihydropyridine-3-carbonitrile] displayed a melting point of 244 to 246 °C. In data set [1], the EC50 stood at 29.9 ± 0.1 nM and the “Wi-38 EC100” value amounted to 0.0239 ± 0.0003 µM. This molecule returned an IC50 in data set [2] of 89.7 ± 13 nM. This molecule yielded an IC50 in data set [3] (Homo sapiens) of 38.6 ± 1 nM. In addition, the “Caco-2 SI” value in data set [3] is listed as 0.775. For the same molecule, the IC50 in data set [5] (Homo sapiens, 72 h) was determined as 53.4 ± 4 nM. This molecule displayed an IC50 in data set [4] of 71.3 ± 3 nM.

Molecule `N#Cc1c(-c2cc3cc(Cl)ccc3nc2N2CCCCC2)cc(-c2cccc(O)c2)[nH]c1=O` [5e, 4-(6-Chloro-2-(piperidin-1-yl)quinoline-3-yl)-6-(3-hydroxyphenyl)-2-oxo-1,2-dihydropyridine-3-carbonitrile] displayed a melting point of more than 300 °C. Further, in data set [1], a half-maximal effect (EC50) was put at 27.6 ± 1 nM and the “Wi-38 EC100” value amounted to 0.0234 ± 0.001 µM. In addition, the IC50 in data set [2] came out at 36.1 ± 1 nM. The half-maximal inhibitory concentration (IC50) in data set [3] (Homo sapiens) came to 51.7 ± 5 nM. In addition, the “Caco-2 SI” value in data set [3] stood at 0.534. The IC50 in data set [5] (Homo sapiens, 72 h) was 40.9 ± 1 nM. In data set [4], this molecule came in with a half-inhibitory concentration (IC50) of 62.7 ± 27 nM.

`COc1ccc2nc(N3CCCCC3)c(-c3cc(-c4cccc(O)c4)[nH]c(=O)c3C#N)cc2c1` [5f, 6-(3-Hydroxyphenyl)-4-(6-methoxy-2-(piperidin-1-yl)quinolin-3-yl)-2-oxo-1,2-dihydropyridine-3-carbonitrile] displayed a melting point of 265 to 267 °C. In data set [1], the EC50 amounted to 29.8 ± 2 nM and the “Wi-38 EC100” value was found to be 0.0258 ± 0.008 µM. In data set [2], the IC50 worked out at 37.8 ± 10 nM. This molecule also displayed an IC50 in data set [3] (Homo sapiens) of 50.8 ± 4 nM. Moreover, the “Caco-2 SI” value in data set [3] was found to be 0.587. The molecule further had an IC50 in data set [5] (Homo sapiens, 72 h) of 45.1 ± 0.1 nM. Also, inhibition in data set [4] was half-maximal at 42.83 ± 0.3 nM (IC50).

`N#Cc1c(-c2cc3cc(Cl)ccc3nc2N2CCOCC2)cc(-c2cccc(O)c2)nc1OCC(=O)Nc1ccccc1` [11d, 2-((4-(6-Chloro-2-morpholin-4-yl-quinolin-3-yl)-3-cyano-6-(3-hydroxyphenyl)pyridin-2-yl)oxy)-N-phenylacetamide] displayed a melting point of 277 to 280 °C. Besides, in data set [1], a half-maximal effect (EC50) was put at 107 ± 1 nM and the “Wi-38 EC100” value worked out at 0.0455 ± 0.002 µM. For the same molecule, in data set [2], the IC50 amounted to 45.8 nM. Moreover, in data set [3], half-maximal inhibition (IC50) required 52.1 ± 2 nM and the “Caco-2 SI” value came to 2.054. The same molecule returned an IC50 in data set [3] (Homo sapiens) of less than 100 nM. The molecule also gave an IC50 in data set [5] (Homo sapiens, 72 h) of less than 100 nM. The molecule further registered an IC50 in data set [5] of 59.4 ± 1 nM.

`N#Cc1c(-c2cc3cc(Cl)ccc3nc2N2CCOCC2)cc(-c2cccc(O)c2)nc1OCC(=O)Nc1ccc(Cl)cc1` [11e, 2-((4-(6-Chloro-2-morpholin-4-yl-quinolin-3-yl)-3-cyano-6-(3-hydroxyphenyl)pyridin-2-yl)oxy)-N-(4-chlorophenyl)acetamide] showed a melting point of more than 300 °C. In data set [1], the EC50 is 85 ± 3 nM and the “Wi-38 EC100” value came to 0.0178 ± 0.0001 µM. In data set [2], the concentration for half-maximal inhibition (IC50) worked out at 41.6 nM. Moreover, in data set [3], the “Caco-2 SI” value was 2.733.

Regarding `COc1ccc(NC(=O)COc2nc(-c3cccc(O)c3)cc(-c3cc4cc(Cl)ccc4nc3N3CCOCC3)c2C#N)cc1` [11f, 2-((4-(6-Chloro-2-morpholin-4-yl-quinolin-3-yl)-3-cyano-6-(3-hydroxyphenyl)pyridin-2-yl)oxy)-N-(4-methoxyphenyl)acetamide], the melting point lay within 228 to 230 °C. In data set [1], the EC50 stood at 181 ± 13 nM and the “Wi-38 EC100” value was 0.0347 ± 0.003 µM. The molecule further returned an IC50 in data set [2] of 36.3 nM. For the same molecule, the “Caco-2 SI” value in data set [3] is on record as 5.262.

Source of the values: article PMC9848351, “Discovery of new pyridine-quinoline hybrids as competitive and non-competitive PIM-1 kinase inhibitors with apoptosis induction and caspase 3/7 activation capabilities” (Journal of Enzyme Inhibition and Medicinal Chemistry, 2023).
